# Measured values taken from patent US10761087B2, “Choroidal neovascularization suppressor or drusen formation suppressor, and method for assessing or screening for same” (Link Genomics, Inc., priority 2015, dated 2020).
# “Also recorded” adds a separate entry of the source. Where two headings read alike, the source gives them in different places.
# Assays:
# [1] = test system: EMT markers (mesenchymal markers, ECM) in RPE cells (ARPE-19); experiment: Change in expression of EMT markers (real-time PCR) in EMT-induced RPE cells; format: cell-based, human; details: for EMT suppression (FIG. 3 to FIG. 7) / Expression of EMT markers other than the ten common markers / Expression of Snail, Slug, CDH3, MMP1, MMP7, COL5A3, COL6A3, LAMC2, HMMR, TNC / Enhancement of expression of Fibronectin, Snail and vimentin (mesenchymal markers): EMT-induced ARPE-19, 48 hours; for EMT suppression (FIG. 3 to FIG. 7) / Expression of EMT markers other than the ten common markers / Expression of Snail, Slug, CDH3, MMP1, MMP7, COL5A3, COL6A3, LAMC2, HMMR, TNC: oxaprozin 300 μM, epalrestat 30 μM, zafirlukast 3 μM, amlexanox 30 μM, zaltoprofen 30 μM; for Enhancement of expression of Fibronectin, Snail and vimentin (mesenchymal markers): compound at Cmax, ½ of Cmax or ¼ of Cmax; for Expression of EMT markers at the time of EMT induction (FIG. 8 to FIG. 12): flufenamic acid aluminum 28 μM, mefenamic acid 39 μm, sulindac 100 μM, tiaprofenic acid 1000 μM, seratrodast 31 μM
# Description: RPE cells (ARPE-19) were seeded on a plate, and incubated for 5 days at 37° C. For the RPE cells, EMT was induced in the conditions described in Test example 1-1, and respective compounds (oxaprozin, epalrestat, zafirlukast, amlexanox, zaltoprofen) were added simultaneously, and the cells were collected after 48 hours from induction of EMT. As a control, a sample to which a compound to be assessed (test drug) is not added was used. The collected cells were washed with PBS, and 350 μL of an RLT buffer was added to prepare a lysate for RNA extraction. The respective compounds were used in the following concentrations. Oxaprozin: 300 μM, epalrestat: 30 μM, zafirlukast: 3 μM, amlexanox: 30 μM, zaltoprofen: 30 μM. Total RNA was extracted from the lysate using an RNeasy Micro kit (QIAGEN, #74004), and from 2 μg of the obtained RNA, cDNA was prepared using a SuperScript III First-Strand Synthesis SuperMix for qRT-PCR (Invitrogen, #11752-250). Using 50 ng of the obtained cDNA as a template, a real-time PCR (ABI Prism 7500 Sequence Detection System) was conducted according to the manufacturer's protocol, and expression of mRNA of each gene was quantified. Specific primers for respective genes were purchased from Invitrogen. Ct (Threshold Cycle) value of each gene was calculated as a percentage to a non-treated sample after normalization by endogenous control.
# Five compounds (flufenamic acid aluminum (addition concentration: 28 μM (Cmax)), mefenamic acid (addition concentration: 39 μm (Cmax)), sulindac (addition concentration: 100 μM), tiaprofenic acid (addition concentration: 1000 μM), and seratrodast (addition concentration: 31 μM (Cmax))) were assessed for change in expression of EMT markers in the same manner as in Test example 2-1. The results are shown in FIG. 8 to FIG. 12, respectively.
# (§1) RPE cells (ARPE-19) were seeded on a plate, and incubated for 5 days at 37° C. […] Each compound was added in a concentration of Cmax, ½ of Cmax or ¼ of Cmax. As a control, a sample to which a compound to be assessed (test drug) is not added was used. The collected cells were washed with PBS, and 350 μL of an RLT buffer was added to prepare a lysate for RNA extraction. Total RNA was extracted from the lysate using an RNeasy Micro kit (QIAGEN, #74004), and from 2 μg of the obtained RNA, cDNA was prepared using a SuperScript III First-Strand Synthesis SuperMix for qRT-PCR (Invitrogen, #11752-250). Using 50 ng of the obtained cDNA as a template, a real-time PCR (ABI Prism 7500 Sequence Detection System) was conducted according to the manufacturer's protocol, and expression of mRNA of each gene was quantified. Specific primers for respective genes were purchased from Invitrogen. Ct (Threshold Cycle) value of each gene was calculated as a percentage to a non-treated sample after normalization by endogenous control. For each result, a significant test (Student t test) was conducted, and when p<0.05, the result was marked with “*”, and when p<0.01, the result was marked with “**”.
# RPE cells (ARPE-19) were seeded on a plate, and incubated for 5 days at 37° C. For the RPE cells, EMT was induced in the conditions described in Test example 5-1, and the five representative compounds (oxaprozin, epalrestat, zafirlukast, amlexanox, zaltoprofen) were added simultaneously, and the cells were collected after 48 hours from induction of EMT. As a control, a sample to which a compound to be assessed (test drug) is not added was used. The collected cells were washed with PBS, and 350 μL of an RLT buffer was added to prepare a lysate for RNA extraction. Total RNA was extracted from the lysate using an RNeasy Micro kit (QIAGEN, # 74004), and from 2 μg of the obtained RNA, cDNA was prepared using a SuperScript III First-Strand Synthesis SuperMix for qRT-PCR (Invitrogen, # 11752-250). […]
# RPE cells (ARPE-19) = experiment: Focus (drusen-like structure) formation suppression in EMT induction model of RPE cells; format: cell-based, human; details: for Suppression of drusen-like structure formed in the RPE cell model: FIG. 35 to 39; for IC50: Homo sapiens
# Description: RPE cells (ARPE-19) were seeded on a plate, and incubated for 5 days at 37° C. […] As a control of EMT induction, a sample to which a compound to be assessed (test drug) is not added was used. After 48 hours from EMT induction, the cells were fixed by treating with a 4% paraformaldehyde solution for 30 minutes at room temperature, and then washed three times with PBS. The cells were treated with a 0.2% Triton-X/PBS solution for 5 minutes, and washed three times with PBS. […] The fluorescent-stained cells were imaged by using an Image Express Micro (available from Molecular Devices), and digitized by using a MetaXpress2.0 (available from Molecular Devices). By analyzing the degree of formation of Focus (Focus level) from the numerical data, a Focus formation suppressing rate was calculated according to the following Formula 1 on the basis of the numerical value at the time of no addition of a compound, and the EMT suppressive effect in each compound was verified. The degree of formation of Focus (Focus level) was determined according to the number and the volume of Focus as indexes.
# IC50 in the table was calculated using the following Formula 2.
# A: Higher concentration sandwiching 50%
# B: Lower concentration sandwiching 50%
# C: Inhibition rate at lower concentration sandwiching 50%
# D: Inhibition rate at higher concentration sandwiching 50%
# RPE cells (ARPE-19) were seeded on a plate, and incubated for 5 days at 37° C. […] As a control of EMT induction, a sample to which a compound to be assessed (test drug) is not added was used. The cells after observation were fixed by treating with a 4% paraformaldehyde solution for 30 minutes at room temperature, and then washed three times with PBS. The cells were treated with a 0.2% Triton-X/PBS solution for 5 minutes, and washed three times with PBS. […] The fluorescent-stained cells were imaged by using an Image Express Micro (available from Molecular Devices), and digitized by using a MetaXpress2.0 (available from Molecular Devices). By analyzing the degree of formation of Focus from the numerical data, a Focus formation suppressing rate was calculated on the basis of the case without addition of a compound and the case without EMT induction, and the EMT suppressive effect in each compound was verified. […] After washing three times with methanol, the cells were dried for 3 hours at room temperature. The dried cells were observed under a microscope.
# [2] = cited from earlier work
# VEGF = experiment: Change in expression of VEGF mRNA (real-time PCR) in EMT-induced RPE cells; format: cell-based, human; details: EMT-induced ARPE-19, 48 hours, compound at Cmax, ½ of Cmax or ¼ of Cmax
# Description: as §1
# The results are shown in FIG. 16 or FIG. 17, respectively.
# The VEGF suppressive effect was assessed using the cell model as described above in the same manner as in Test example 2-3. The results are shown in FIG. 18 to FIG. 20, respectively.
# [3] = Table 1, EMT-induced ARPE-19, compound added simultaneously, 48 hours, read-out: IC50 (Focus formation suppressing rate, EMT suppressive effect)
# [4] = Test example 7, EMT-induced ARPE-19, 48 hours, read-out: IC50 values in the drusen-like structure suppressing tests
# [5] = Pharmaceutical Interview Form, single-dose administration, read-out: Cmax
# [6] = Table 3, from the interview form and the package insert of each drug, read-out: Cmax
# [7] = RPE, Table 2, same manner as Test example 6-1, read-out: IC50 (Focus formation suppressing rate, EMT suppressive effect)
# [8] = quoted in Test examples 2-3, 2-4, 2-5, read-out: Cmax (as quoted in the VEGF test examples)
smiles,measurement,setting,value
"COc1cc(C(=O)NS(=O)(=O)c2ccccc2C)ccc1Cc1cn(C)c2ccc(NC(=O)OC3CCCC3)cc12 [Zafirlukast, zafirlukast]",EMT suppression (FIG. 3 to FIG. 7),[1],significantly suppress EMT
same,Expression of EMT markers other than the ten common markers,[1],"decrease in expression was observed in MMP3, COL13A1, LAMB3, or CSPG4"
same,"Expression of Snail, Slug, CDH3, MMP1, MMP7, COL5A3, COL6A3, LAMC2, HMMR, TNC",[1],suppressed expression
same,Suppression of drusen-like structure formed in the RPE cell model,"RPE cells (ARPE-19); EMT-induced ARPE-19, 48 hours",suppresses a drusen-like structure formed in the RPE cell model in a concentration-dependent manner
same,IC50,RPE cells (ARPE-19); [3],3.8 µM
same,IC50,RPE cells (ARPE-19); [4],3.8 µM
same,Cmax,[2]; [5],0.8 µM
same,Cmax,[2]; [6],0.8 µM
O=C(O)c1ccccc1Nc1cccc(C(F)(F)F)c1 [flufenamic acid aluminum],"Enhancement of expression of Fibronectin, Snail and vimentin (mesenchymal markers)",[1],suppressed enhancement of expression of these in a concentration dependent manner
same,Expression of EMT markers at the time of EMT induction (FIG. 8 to FIG. 12),[1],significantly suppress expression of EMT markers at the time of EMT induction; also recorded: lower expression of EMT markers at the time of EMT induction
same,Enhancement of VEGF mRNA expression by EMT induction,VEGF,suppress enhancement of mRNA expression of VEGF
same,Enhancement of VEGF mRNA expression by EMT induction,VEGF; listed as Flufenamic acid aluminum,suppressed enhancement of VEGF expression in a concentration dependent manner
same,IC50,RPE cells (ARPE-19); [7],4.4 µM
same,Cmax,[2]; [5],27.9 µM
same,Cmax,[2]; [8],27.9 µM
"CC1=C(C)C(=O)C(C(CCCCCC(=O)O)c2ccccc2)=C(C)C1=O (centres unmarked) [Seratrodast, seratrodast]",IC50,RPE cells (ARPE-19); [7],54.6 µM
same,Cmax,[2]; [5],31 µM
same,Cmax,[2]; [8],31 µM
"Cc1cccc(Nc2ccccc2C(=O)O)c1C [Mefenamic acid, mefenamic acid]","Enhancement of expression of Fibronectin, Snail and vimentin (mesenchymal markers)",[1],suppressed enhancement of expression of these in a concentration dependent manner
same,Expression of EMT markers at the time of EMT induction (FIG. 8 to FIG. 12),[1],significantly suppress expression of EMT markers at the time of EMT induction; also recorded: lower expression of EMT markers at the time of EMT induction
same,Enhancement of VEGF mRNA expression by EMT induction,VEGF,suppressed enhancement of VEGF expression in a concentration dependent manner
same,Enhancement of VEGF mRNA expression by EMT induction,VEGF; listed as mefenamic acid,suppress enhancement of mRNA expression of VEGF
same,IC50,RPE cells (ARPE-19); [7],12.4 µM
same,Cmax,[2]; [5],38.5 µM
same,Cmax,[2]; [8],38.5 µM
"O=C(Nc1cccc2c(=O)cc(-c3nnn[nH]3)oc12)c1ccc(OCCCCc2ccccc2)cc1 [Pranlukast, pranlukast]",IC50,RPE cells (ARPE-19); [3],1.1 µM
"CC(C(=O)O)c1ccc(-c2ccccc2)c(F)c1 (centres unmarked) [Flurbiprofen, flurbiprofen]",IC50,RPE cells (ARPE-19); [3],32.6 µM
"CC1=C(CC(=O)O)c2cc(F)ccc2/C1=C\c1ccc([S+](C)[O-])cc1 (centres unmarked) [Sulindac, sulindac]",Expression of EMT markers at the time of EMT induction (FIG. 8 to FIG. 12),[1],significantly suppress expression of EMT markers at the time of EMT induction; also recorded: lower expression of EMT markers at the time of EMT induction
same,IC50,RPE cells (ARPE-19); [7],35.3 µM
same,Cmax,[2]; [5],10.1 µM
"CC(C)c1ccc2oc3nc(N)c(C(=O)O)cc3c(=O)c2c1 [Amlexanox, amlexanox]",EMT suppression (FIG. 3 to FIG. 7),[1],significantly suppress EMT
same,Expression of EMT markers other than the ten common markers,[1],"decrease in expression was observed in ZEB2, CDH2, MMP3, COL1A1, and COL13A1"
same,"Expression of Snail, Slug, CDH3, MMP1, MMP7, COL5A3, COL6A3, LAMC2, HMMR, TNC",[1],suppressed expression
same,Suppression of drusen-like structure formed in the RPE cell model,"RPE cells (ARPE-19); EMT-induced ARPE-19, 48 hours",suppresses a drusen-like structure formed in the RPE cell model in a concentration-dependent manner
same,IC50,RPE cells (ARPE-19); [3],32.5 µM
same,IC50,RPE cells (ARPE-19); [4],32.5 µM
same,Cmax,[2]; [5],16 µM
same,Cmax,[2]; [6],16 µM
"CC(/C=C1\SC(=S)N(CC(=O)O)C1=O)=C\c1ccccc1 [Epalrestat, epalrestat]",IC50,RPE cells (ARPE-19); [3],16.9 µM
same,IC50,RPE cells (ARPE-19); [4],16.9 µM
same,Cmax,[2]; [5],12.2 µM
same,Cmax,[2]; [6],12.2 µM
same,Cmax,[2]; [8],12.2 µM
"CC(C)Cc1ccc(C(C)C(=O)O)cc1 (centres unmarked) [Ibuprofen, ibuprofen]",IC50,RPE cells (ARPE-19); [3],18 µM
COc1ccc2c(c1)c(CC(=O)O)c(C)n2C(=O)c1ccc(Cl)cc1 [indomethacin],"Enhancement of expression of Fibronectin, Snail and vimentin (mesenchymal markers)",[1],did not suppress enhancement of expression of these
same,Enhancement of VEGF mRNA expression by EMT induction,VEGF,did not suppress enhancement of VEGF expression
same,Cmax,[2]; [8],2.79 µM
"CCc1cccc2c3c([nH]c12)C(CC)(CC(=O)O)OCC3 (centres unmarked) [Etodolac, etodolac]","Enhancement of expression of Fibronectin, Snail and vimentin (mesenchymal markers)",[1],did not suppress enhancement of expression of these
same,Enhancement of VEGF mRNA expression by EMT induction,VEGF,did not suppress enhancement of VEGF expression
same,Cmax,[2]; [8],42.5 µM
"CC(C(=O)O)c1ccc(C(=O)c2ccccc2)s1 (centres unmarked) [Tiaprofenic acid, tiaprofenic acid]",Expression of EMT markers at the time of EMT induction (FIG. 8 to FIG. 12),[1],significantly suppress expression of EMT markers at the time of EMT induction; also recorded: lower expression of EMT markers at the time of EMT induction
same,IC50,RPE cells (ARPE-19); [7],374 µM
same,Cmax,[2]; [5],69.2 µM
